Experimental data: PMC9332833 (Cancers, 2022)

Tested on: CD34+/CD38- leukemia stem cells from CML patients
Assay: Annexin V-FITC/PI apoptosis in CD34+/CD38- subpopulation
Assay type: cell-based, human
Conditions: 2.5 or 5 µM, within 24 h, 3 patients; dose dependent
Procedure: Pre-cultured cells were treated with BK124.1 or DMSO for 24 h. For purity analysis, cells were stained with anti-human CD34-APC antibody, anti-human CD38-PE (Biolegend, San Diego, CA, USA), and propidium iodide according to the manufacturers’ protocols. For apoptosis analysis, cells were additionally stained with Annexin V-FITC kit (BD, Franklin Lakes, NJ, USA) according to the manufacturer’s protocol. Appropriate isotype controls were included. Stained cells were immediately analyzed on a BD LSRFortessa flow cytometer with FlowJo software (BD, Franklin Lakes, NJ, USA), after exclusion of doublets. Purity was analyzed on live cells only, and apoptosis separately for each population of cells (CD34^+/CD38^+ or CD34^+/CD38^−).
[…] Next, we isolated CD34+ cells (EasySep™ Human CD34 Positive Selection Kit II, StemCell Technologies, Vancouver, Canada), counted them and assessed viability with Muse Cell Analyzer (Merck Millipore, Burlington, MA, USA). […] The purity of the live CD34+ fraction was assessed by flow cytometry with anti-human CD34-APC antibody, compared with an appropriate isotype control (Biolegend, San Diego, CA, USA), and propidium iodide (Sigma-Aldrich, St. Louis, MO, USA). […]
[…] In both cases stained cells were immediately analyzed on a BD LSRFortessa flow cytometer and analyzed with FlowJo software (BD, Franklin Lakes, NJ, USA). […]

## CCC12C(=O)C(CC)(C(c3ccccc3)=C1c1ccccc1)C1C(=O)N(CC(O)CNC(C)C)C(=O)C12 (stereo not shown) [BK124.1, 4-[2-hydroxy-3-(propan-2-ylamino)propyl]-1,7-diethyl-8,9-diphenyl-4-azatricyclo [5.2.1.02,6]dec-8-ene-3,5,10-trione]
  Apoptosis in CD34+/CD38- leukemia stem cells: induced apoptosis
